Results reported in ChEMBL document CHEMBL4610075, “Isolation, Absolute Configuration, and Biological Activities of Chebulic Acid and Brevifolincarboxylic Acid Derivatives from Euphorbia hirta” (J Nat Prod, 2020).

Key:
[1] = Antioxidant activity assessed as DPPH radical scavenging activity after 30 mins; type: functional
BV-2 = assay: Antineuroinflammatory activity in mouse BV2 cells assessed as inhibition of LPS-induced NO production incubated for 24 hrs by Griess assay; type: functional, cell-based; conditions: BV-2, 24 h

Row | EC50 [1] [µM] | IC50 (BV-2) [µM] | Compound
1 | 3 |  | O=C1C[C@H](C(=O)O)c2c1oc(=O)c1cc(O)c(O)c(O)c21
2 | 6 |  | COC(=O)[C@H]1CC(=O)c2oc(=O)c3cc(O)c(O)c(O)c3c21
3 | 8.1 |  | CCOC(=O)/C=C(/C(=O)O)[C@H]1c2c(cc(O)c(O)c2O)C(=O)O[C@@H]1C(=O)OCC
4 | 4.7 |  | O=C(O)Cc1c2c3c(cc(O)c(O)c3oc1=O)C(=O)OC2
5 | 8.1 |  | CCOC(=O)[C@H]1OC(=O)c2cc(O)c(O)c(O)c2[C@@H]1[C@@H](CC(=O)O)C(=O)OCC
6 | 4.4 |  | CCOC(=O)/C=C(/C(=O)OCC)[C@H]1c2c(cc(O)c(O)c2O)C(=O)O[C@@H]1C(=O)OC
7 | 6.8 |  | CCOC(=O)C[C@@H](C(=O)OCC)[C@H]1c2c(cc(O)c(O)c2O)C(=O)O[C@@H]1C(=O)OCC
8 | 6 |  | CCOC(=O)/C=C(/C(=O)OC)[C@H]1c2c(cc(O)c(O)c2O)C(=O)O[C@@H]1C(=O)OCC
9 | 2.2 |  | CCOC(=O)/C=C(/C(=O)OCC)[C@H]1c2c(cc(O)c(O)c2O)C(=O)O[C@@H]1C(=O)OCC
10 | 5.4 |  | CCOC(=O)/C=C(/C(=O)OCC)[C@H]1c2c(cc(O)c(O)c2O)C(=O)O[C@@H]1C(=O)O
11 | 6.7 | 30.5 | CCOC(=O)[C@H]1CC(=O)c2oc(=O)c3cc(O)c(O)c(O)c3c21
12 | 8 |  | COC(=O)Cc1c2c3c(cc(O)c(O)c3oc1=O)C(=O)OC2
13 | 6.7 |  | CCOC(=O)[C@H]1CC(=O)c2c1c1c(O)c(O)c(O)cc1c(=O)n2CCCC(=O)OC
14 | 15.8 |  | CCOC(=O)C[C@@H](C(=O)O)[C@H]1c2c(cc(O)c(O)c2O)C(=O)O[C@@H]1C(=O)OCC
15 | 2.2 |  | CCOC(=O)Cc1c2c3c(cc(O)c(O)c3oc1=O)C(=O)OC2
16 | 10.8 |  | CCOC(=O)/C(=C/C(=O)O)[C@H]1c2c(cc(O)c(O)c2O)C(=O)O[C@@H]1C(=O)OCC
17 | 7.6 | 27 | O=C1CCc2c1oc(=O)c1cc(O)c(O)c(O)c21
18 | 4.2 |  | CCOC(=O)Cc1c2c3c(cc(O)c(O)c3oc1=O)C(=O)OC2C(=O)OCC (racemic)
19 | 7.7 |  | COC(=O)C1OC(=O)c2cc(O)c(O)c3oc(=O)c(CC(=O)O)c1c23 (racemic)
20 | 9.9 |  | CCOC(=O)C1OC(=O)c2cc(O)c(O)c3oc(=O)c(CC(=O)O)c1c23 (racemic)
21 | 6.5 |  | CCOC(=O)Cc1c2c3c(cc(O)c(O)c3oc1=O)C(=O)OC2C(=O)OC (racemic)
22 | 9.2 |  | O=C1O[C@H]([C@@H](O)CO)C(O)=C1O [ASCORBIC ACID]
23 |  | 18.5 | CN(C)c1ccc(O)c2c1C[C@H]1C[C@H]3[C@H](N(C)C)C(O)=C(C(N)=O)C(=O)[C@@]3(O)C(O)=C1C2=O [MINOCYCLINE]

Row | Compound | EC50 [1] [µM] | IC50 (BV-2) [µM]
24 | CCOC(=O)C1(OCC)CC(=O)c2oc(=O)c3cc(O)c(O)c(O)c3c21 (racemic) | 4 | 
25 | CCOC(=O)Cc1c2c3c(cc(O)c(O)c3oc1=O)C(=O)C2(O)C(=O)OCC (racemic) | 5.3 | 31.5
